According to US10538571B2, “Compositions and methods for neurological diseases” (Coda Biotherapeutics, Inc., priority 2017, dated 2020):

Columns and labels:
[1] = biological target: T1, SEQ ID NO:33 with substitution L131S (Homo sapiens, UniProt P36544, F159M/H163T/I152M/L131S/R155K/V154L/W156N/Y151P); assay: Electrophysiology, automated patch clamp in HEK293T cells; format: cell-based; settings: FIG. 10A
T1 construct: expressed in transfected cells; host or cells: Lenti-X 293T (HEK293T) cells, pcDNA3.1(+) plasmid
Experimental: (§1) For HEK293T studies, cDNAs encoding ion channels were cloned into pcDNA3.1 using standard recombination techniques. HEK293T cells from Clontech (Lenti-X™ 293T Cell Line) were cultured in DMEM supplemented with 10% FBS and 1% Pen/Strep to 40-50% confluence using standard cell culture protocols, transfected with ion channel plasmids at a concentration of 18 μg per 15 cm dish using Fugene 6, and grown for an additional 24 hours. Cells were then assayed on a medium throughput electrophysiological system (IonFluxHT and/or Mercury, Fluxion Biosciences) in which dose-response relationships may be assessed through a microfluidics-based platform for establishing whole cell configurations. Ensemble plates were primed with extracellular buffer (140 mM NaCl, 5 mM KCl, 2 mM CaCl2, 1 mM MgCl2, 10 mM HEPES, and 10 mM glucose, pH 7.2 with NaOH, mOsm 310), intracellular buffer (145 mM CsCl, 2 mM CaCl2, 2 mM MgCl2, 10 mM HEPES, and 10 mM EGTA, pH 7.2 with CsOH, mOsm 305), as adapted from Lynagh and Lynch, and test compounds (stocks prepared fresh) diluted in extracellular buffer. Cells were then released from the plate with Accutase, centrifuged, resuspended in extracellular buffer, and loaded into Ensemble plates. Cells were then subjected to a standard protocol for priming, trapping, breaking, and establishing whole cell configuration, with cells held at −60 mV throughout the recording. After recording baseline, progressive doses of test compounds were applied using the IonFlux software to assess dose response relationships. Data were then analyzed off-line using custom Python scripts to convert data to .csv format, re-plot traces, and apply QC measurements to reject unstable recordings (i.e. thresholding based on access resistance and/or standard deviation in baseline, as well as artifact rejection). Peak currents were then calculated and population data were fit using a 4-parameter logistic equation as described by the Hill Equation

[2] = biological target: T2, SEQ ID NO:33 with substitution L131T (Homo sapiens, UniProt P36544, F159M/H163T/I152M/L131T/R155K/V154L/W156N/Y151P); assay: as above; format: cell-based; settings: FIG. 10D
T2 construct: expressed in transfected cells; host or cells: Lenti-X 293T (HEK293T) cells, pcDNA3.1(+) plasmid
Experimental: as §1

[3] = biological target: T3, SEQ ID NO:33 with substitution S172D (Homo sapiens, UniProt P36544, F159M/H163T/I152M/R155K/S172D/V154L/W156N/Y151P); assay: as above; format: cell-based; settings: FIG. 10B
T3 construct: expressed in transfected cells; host or cells: Lenti-X 293T (HEK293T) cells, pcDNA3.1(+) plasmid
Experimental: as §1

[4] = biological target: T4, SEQ ID NO:33 with substitution W77M (Homo sapiens, UniProt P36544, F159M/H163T/I152M/R155K/V154L/W156N/W77M/Y151P); assay: as above; format: cell-based; settings: FIG. 10C
T4 construct: expressed in transfected cells; host or cells: Lenti-X 293T (HEK293T) cells, pcDNA3.1(+) plasmid
Experimental: as §1

[5] = test system: spared nerve injury (SNI) model; assay: Spared nerve injury (SNI) model of neuropathic pain, mechanical withdrawal threshold (von Frey, up-down method) after AAV.hSYN-α7-nAChR/GlyRα1 injection; format: in vivo, rat; settings: for reversal of mechanical hypersensitivity: single IP injection
Excerpt: Eight expression cassettes are constructed using standard molecular biology techniques. All contain a human synapsin-1 (hSYN) promoter linked to engineered chimeric receptors comprising a ligand binding domain of α7-nAChR and a Cys-loop domain and ion pore domain of GlyRα1. Their design is as follows:
These cassettes are subcloned into AAV bacmids, purified, transfected into Sf9 insect cells to produce recombinant bacuvlovirus, and then amplified. Sf9 cells are double infected using the amplified recombinant baculovirus containing the hSYN-α7-nAChR/GlyRα1 cassettes and another recombinant baculovirus containing the Rep and AAV6(Y705+731F+T492V) Cap genes to produce recombinant AAV vectors. The viral vectors are purified, viral titer determined using qPCR, and SDS-PAGE used to verify the purity of AAV vectors.
To produce mechanical hypersensitivity in a model that mimics a neuropathic pain condition, the spared nerve injury (SNI) model (a validated model of mechanical allodynia) is used (Shields et al., 2003, The Journal of Pain, 4, 465-470). This model is produced by the sectioning of the common peroneal and the sural nerves and isolating the tibial branch. Mechanical withdrawal threshold is assessed by placing rats on an elevated wire-mesh grid and stimulating the plantar surface of the hind paw with von Frey filaments.
A dorsal hemilaminectomy is made at the level of the lumbar enlargement to expose two segments (about 1.5-2 mm) of lumbar spinal cord, after which the dura mater is incised and reflected. The viral solution is loaded into a glass micropipette (prefilled with mineral oil). The micropipette is connected to a manual micro-injector mounted on a stereotactic apparatus. The viral solution is targeted to the dorsal horn (left side). Along the rostro-caudal axis within the exposed region, 6 injections of 240 nl each are performed, in an equidistant linear fashion. After each injection, 1 min of resting time is observed and then the muscle layer is sutured, the skin closed with staples, and the animals were allowed to recover with heated-pad before they were returned to their home cages. Animals are perfused for histological analysis after the last behavior test.
The injection is performed with a borosilicate glass capillary (0.78/1 mm internal/external diameters) pulled to a fine point, attached by polyethylene tubing (0.4/0.8 mm internal/external diameters) to a syringe mounted in a microinjection pump. The needle is mounted on an extended arm of a stereotaxic frame swung to the outside (used to hold and manipulate the needle only). Tubing, syringe, and needle are all filled with water. One microliter air is taken up into the needle followed by 3 μL of the viral vector solution. The needle is loaded separately with this volume for each injection. Animals are anesthetized prior to surgery. Following an incision along the dorsal midline, the L4 and L5 DRG are exposed by removal of the lateral processes of the vertebrae. The epineurium lying over the DRG is opened, and the glass needle inserted into the ganglion, to a depth of 400 μm from the surface of the exposed ganglion. After a 3-minute delay to allow sealing of the tissue around the glass capillary tip, 1.1 μL virus solution was injected at a rate of 0.2 μL/minute. After a further delay of 2 minutes, the needle is removed. The L4 ganglion is injected first followed by the L5 ganglion. The muscles overlying the spinal cord are loosely sutured together with a 5-0 suture and the wound closed. Animals are allowed to recover at 37° C. and received postoperative analgesia.
Rats are first anesthetized and then placed vertically with their head fixed in a stereotaxic frame. An incision is made in the base of the neck to expose the groove in the nuchal crest. An incision is made (1-2 mm) in the cisternal membrane to a depth such that cerebrospinal fluid leaks out. […]

T4 sequence (P36544 with tags, fused parts or gaps W77M/Y151P/I152M/V154L/R155K/W156N/F159M/H163T): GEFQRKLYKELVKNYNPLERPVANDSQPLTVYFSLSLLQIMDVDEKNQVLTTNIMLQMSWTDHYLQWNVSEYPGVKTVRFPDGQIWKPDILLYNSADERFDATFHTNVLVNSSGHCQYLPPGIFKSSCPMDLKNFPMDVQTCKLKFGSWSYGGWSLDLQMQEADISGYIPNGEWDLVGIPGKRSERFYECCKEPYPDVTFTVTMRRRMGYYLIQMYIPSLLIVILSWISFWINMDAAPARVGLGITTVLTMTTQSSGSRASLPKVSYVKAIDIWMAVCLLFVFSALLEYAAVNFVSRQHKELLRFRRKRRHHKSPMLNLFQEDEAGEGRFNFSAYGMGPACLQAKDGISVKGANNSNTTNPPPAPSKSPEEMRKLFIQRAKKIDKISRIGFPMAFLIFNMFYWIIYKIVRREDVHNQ
T2 sequence (P36544 with tags, fused parts or gaps L131T/Y151P/I152M/V154L/R155K/W156N/F159M/H163T): as the sequence (P36544 with tags, fused parts or gaps W77M/Y151P/I152M/V154L/R155K/W156N/F159M/H163T) above, with M55W, L109T counted along it
T1 sequence (P36544 with tags, fused parts or gaps L131S/Y151P/I152M/V154L/R155K/W156N/F159M/H163T): as the sequence (P36544 with tags, fused parts or gaps W77M/Y151P/I152M/V154L/R155K/W156N/F159M/H163T) above, with M55W, L109S counted along it
T3 sequence (P36544 with tags, fused parts or gaps Y151P/I152M/V154L/R155K/W156N/F159M/H163T/S172D): as the sequence (P36544 with tags, fused parts or gaps W77M/Y151P/I152M/V154L/R155K/W156N/F159M/H163T) above, with M55W, S150D counted along it

c1cnc2c(c1)C[C@@]1(CN3CCC1CC3)O2 [AZD-0328]
right-ward shift in EC50 relative to parental chimera SEQ ID NO:33 [1]: 2 fold
right-ward shift in EC50 relative to parental chimera SEQ ID NO:33 [2]: ~1 log
right-ward shift in EC50 relative to parental chimera SEQ ID NO:33 [3]: 2 fold
right-ward shift in EC50 relative to parental chimera SEQ ID NO:33 [4]: > 2.5 log
duration of the reversal of mechanical hypersensitivity ([5]; after single IP injection): at least 2 days
effect on mechanical threshold in the absence of vector ([5]; contralateral side): no measurable effect
mechanical thresholds after second IP injection ([5]; injected again on the third day, followed for 48 hours): recovery to non-injury baseline thresholds
reversal of mechanical hypersensitivity ([5]; high dose of ligand, all rats (Chimera 1-8)): complete reversal
reversal of mechanical hypersensitivity ([5]; low dose, rats receiving Chimera 1, 2, 4, 5, 6 and 8): complete reversal
reversal of mechanical hypersensitivity ([5]; low dose, rats receiving Chimera 3 and 7): partial reversal
